Measurements: patent publication US10457662B2, “Substituted amides for treating and preventing cancer” (The Regents of the University of Michigan, priority 2015, dated 2019)
Like-named read-outs stand apart in the source and are kept apart here.

Columns and labels:
[1] = system: MiaPaCa-2; experiment: MTT assay, MiaPaCa-2; conditions: Homo sapiens
Protocol: Cells were treated with QN523 for 1, 4, 8, 24, 48, 72 h and left in culture in fresh media. MTT assay was performed 72 h after initiation of treatment. Data points represent Mean±SD from three independent experiments.
(§1) Experiments conducted during the course of developing embodiments for the present invention involved performance of a phenotypic screen of a library of 20,000 small-molecules representing five million compounds. […] Subsequently, a lead optimization campaign was performed to synthesize a series of close analogs. Initially, the 50 analogs were tested in three pancreatic cancer cell lines using MTT assay (Table 1).
(§2) For in vitro studies, compounds were dissolved in DMSO at 10 mM as stock solutions and stored at −20° C. For in vivo studies, QN523 was dissolved in a vehicle containing 5% DMSO, 35% propylene glycol and 60% saline, and administered at 100 uL through intraperitoneal injections.

[2] = system: Panc-1; experiment: MTT assay, Panc-1; type: cell-based; conditions: Homo sapiens
Protocol: as §1, §2

[3] = system: BxPC-3; experiment: MTT assay, BxPC-3; type: cell-based; conditions: Homo sapiens
Protocol: as §1, §2

[4] = system: three pancreatic cancer cell lines; experiment: MTT assay, three pancreatic cancer cell lines; type: cell-based; conditions: read-out: Mark: IC50 lower than 1 μM in at least one cell line, Table 1
[5] = MIA PaCa-2, read-out: IC50 Values MiaPaCa-2
[6] = PANC-1, MTT assay, Mean ± SD, three independent experiments, read-out: IC50 Values Panc-1
[7] = BXPC-3, MTT assay, Mean ± SD, three independent experiments, read-out: IC50 Values BxPC-3
[8] = MIA PaCa-2, read-out: IC50 Values MiaPaCa-2, MTT assay, Mean ± SD, three independent experiments
[9] = PANC-1, read-out: IC50 Values Panc-1
[10] = BXPC-3, read-out: IC50 Values BxPC-3

Structure (SMILES)	IC50 [1, 5]	IC50 [2, 6]	IC50 [3, 7]	IC50 [1, 8]	IC50 [2, 9]	IC50 [3, 10]	IC50 [4]	IC50 ([1]; MIA PaCa-2, read-out: IC50 in MiaPaCa-2, comparison compounds)
Cc1ccc2cccc(NC(=O)c3ncccn3)c2n1 [QN660, Pyrimidine-2-carboxylic acid (2-methylquinolin-8-yl)amide]	> 10 µM	> 10 µM	> 10 µM	–	–	–	–	–
Cc1ccc(C(=O)Nc2cccc3cccnc23)cn1 [QN522, 6-Methyl-N-quinolin-8-yl-nicotinamide]	–	–	–	> 10 µM	> 10 µM	> 10 µM	–	–
Cc1cnc(C(=O)Nc2cc(OCCC3CCNCC3)cc3cccnc23)cn1 [QN164, 5-Methylpyrazine-2-carboxylic acid [6-(2-piperidin-4-yl-ethoxy)quinolin-8-yl]amide]	6.17 ± 1.04 µM	> 10 µM	8.33 ± 1.53 µM	–	–	–	–	–
O=C(Nc1cc(OCCC2CCNCC2)cc2cccnc12)c1cnccn1 [QN163, Pyrazine-2-carboxylic acid [6-(2-piperidin-4-yl-ethoxy)quinolin-8-yl]amide]	> 10 µM	> 10 µM	> 10 µM	–	–	–	–	–
Cc1cnc(C(=O)Nc2cc(F)cc3cccnc23)cn1 [QN652, 5-Methylpyrazine-2-carboxylic acid (6-fluoroquinolin-8-yl)amide]	0.31 ± 0.16 µM	2.12 ± 0.94 µM	> 10 µM	–	–	–	< 1 µM	–
O=C(Nc1cc(Cl)cc2cccnc12)c1ncccn1 [QN794, N-(6-Chloroquinolin-8-yl)pyrimidine-2-carboxamide]	0.8 ± 0.05 µM	4.67 ± 1.53 µM	> 10 µM	–	–	–	< 1 µM	–
COc1cc(NC(=O)c2cnc(C)cn2)c2ncccc2c1 [QN663, 5-Methylpyrazine-2-carboxylic acid (6-methoxyquinolin-8-yl)amide]	0.27 ± 0.15 µM	0.83 ± 0.21 µM	6.7 ± 0.6 µM	–	–	–	< 1 µM	–
CC(C)(C)OC(=O)NCCOc1cc(NC(=O)c2ncccn2)c2ncccc2c1 [QN153, (2-{8-[(Pyrimidine-2-carbonyl)amino]quinolin-6-yloxy}ethyl)carbamic acid tert-butyl ester]	> 10 µM	> 10 µM	> 10 µM	–	–	–	–	–
N#C/C(=C\c1ccc(O)c(O)c1)C(=O)Nc1cccc2cccnc12 [QN609]	> 10 µM	> 10 µM	> 10 µM	–	–	–	–	–
Cc1cnc(C(=O)Nc2cc(OCCN)cc3cccnc23)cn1 [QN156, 5-Methylpyrazine-2-carboxylic acid [6-(2-aminoethoxy)quinolin-8-yl]amide]	> 10 µM	> 10 µM	> 10 µM	–	–	–	–	–
Cc1cnc(C(=O)Nc2ccc(Br)c3cccnc23)cn1 [QN571, 5-Methylpyrazine-2-carboxylic acid (5-bromoquinolin-8-yl)amide]	2.23 ± 0.31 µM	6.83 ± 1.73 µM	> 10 µM	–	–	–	–	–
CC(COc1ccccc1)N(CCCl)Cc1ccccc1 (stereo not shown) [pheoxybenzamine, reference compound]	–	–	–	–	–	–	–	> 30 µM
O=C(Nc1cc(OCCN2CCOCC2)cc2cccnc12)c1cnccn1 [QN137, Pyrazine-2-carboxylic acid [6-(2-morpholin-4-yl-ethoxy)-quinolin-8-yl]-amide]	1.7 ± 0.52 µM	8.17 ± 1.61 µM	5.17 ± 1.61 µM	–	–	–	–	–
COc1cc(/C=C(\C#N)C(=O)Nc2cccc3cccnc23)cc(OC)c1OC [QN610]	> 10 µM	> 10 µM	> 10 µM	–	–	–	–	–
O=C(Nc1cccc2cccnc12)c1cccc(Br)n1 [QN530, 6-Bromopyridine-2-carboxylic acid quinolin-8-ylamide]	–	–	–	> 10 µM	> 10 µM	> 10 µM	–	–
Cc1ccc2cccc(NC(=O)c3cnccn3)c2n1 [QN634, Pyrazine-2-carboxylic acid (2-methylquinolin-8-yl)amide]	> 10 µM	> 10 µM	> 10 µM	–	–	–	–	–
O=C(Nc1cc(Cl)cc2cccnc12)c1cnccn1 [QN792, N-(6-Chloroquinolin-8-yl)pyrazine-2-carboxamide]	2.83 ± 0.76 µM	2.7 ± 0.52 µM	> 10 µM	–	–	–	–	–
O=C(Nc1nccc2cccnc12)c1cnccn1 [QN655, Pyrazine-2-carboxylic acid [1,7]naphthyridin-8-ylamide]	7.7 ± 1.53 µM	6.72 ± 1.02 µM	7.22 ± 1.02 µM	–	–	–	–	–
CC(C)(C)OC(=O)N1CCC(CCOc2cc(NC(=O)c3cnccn3)c3ncccc3c2)CC1 [QN159, 4-(2-{8-[(Pyrazine-2-carbonyl)amino]quinolin-6-yloxy}ethyl)piperidine-1-carboxylic acid tert-butyl ester]	3.67 ± 1.15 µM	9.5 ± 0.5 µM	3.33 ± 0.58 µM	–	–	–	–	–
Cc1cnc(C(=O)Nc2cccc3ccc(C)nc23)cn1 [QN632, 5-Methylpyrazine-2-carboxylic acid (2-methylquinolin-8-yl)amide]	> 10 µM	> 10 µM	> 10 µM	–	–	–	–	–

Structure (SMILES)	IC50 [1, 5]	IC50 [2, 6]	IC50 [3, 7]	IC50 [1, 8]	IC50 [2, 9]	IC50 [3, 10]	IC50 [4]	IC50 ([1]; MIA PaCa-2, read-out: IC50 in MiaPaCa-2, comparison compounds)
O=C(Nc1cccc2cccnc12)c1cnc(Cl)cn1 [QN573, 5-Chloropyrazine-2-carboxylic acid quinolin-8-ylamide]	–	–	–	7 ± 1.3 µM	9.3 ± 0.8 µM	> 10 µM	–	–
O=C(Nc1cccc2cccnc12)c1ccc(Br)nc1 [QN524, 6-Bromo-N-quinolin-8-yl-nicotinamide]	–	–	–	> 10 µM	> 10 µM	> 10 µM	–	–
Nc1ccn([C@@H]2O[C@H](CO)[C@@H](O)C2(F)F)c(=O)n1 [Gemcitabine, reference compound]	0.11 ± 0.07 µM	0.2 ± 0.1 µM	0.05 ± 0.02 µM	–	–	–	–	–
O=C(Nc1cccc2cccnc12)c1ccc(F)nc1 [QN532, 6-Fluoro-N-quinolin-8-yl-nicotinamide]	–	–	–	> 10 µM	> 10 µM	> 10 µM	–	–
Cc1cnc(C(=O)Nc2ccc3ncccc3c2)cn1 [QN520, 5-Methylpyrazine-2-carboxylic acid quinolin-6-ylamide]	> 10 µM	> 10 µM	> 10 µM	–	–	–	–	–
NCCOc1cc(NC(=O)c2cnccn2)c2ncccc2c1 [QN154, Pyrazine-2-carboxylic acid [6-(2-aminoethoxy)quinolin-8-yl]amide]	> 10 µM	> 10 µM	> 10 µM	–	–	–	–	–
O=C(Nc1cc(OCCC2CCNCC2)cc2cccnc12)c1ncccn1 [QN165, Pyrimidine-2-carboxylic acid [6-(2-piperidin-4-yl-ethoxy)quinolin-8-yl]amide]	> 10 µM	> 10 µM	> 10 µM	–	–	–	–	–
COc1cc(NC(=O)c2ncccn2)c2ncccc2c1 [QN113]	1.3 ± 0.35 µM	9 ± 1.41 µM	> 10 µM	–	–	–	–	–
CN(C)CCOc1cc(NC(=O)c2cnccn2)c2ncccc2c1 [QN147, Pyrazine-2-carboxylic acid [6-(2-dimethylamino-ethoxy)-quinolin-8-yl]-amide]	> 10 µM	> 10 µM	> 10 µM	–	–	–	–	–
Cc1cnc(C(=O)Nc2cc(OCCN(C)C)cc3cccnc23)cn1 [QN148, 5-Methyl-pyrazine-2-carboxylic acid [6-(2-dimethylamino-ethoxy)-quinolin-8-yl]-amide]	1.8 ± 0.46 µM	4.5 ± 0.5 µM	9.67 ± 0.58 µM	–	–	–	–	–
O=C(Nc1cccc2cccnc12)c1cnc2ccccc2n1 [QN572, Quinoxaline-2-carboxylic acid quinolin-8-ylamide]	–	–	–	> 10 µM	> 10 µM	> 10 µM	–	–
Cc1cnc(C(=O)Nc2cc(OCCC3CCN(C(=O)OC(C)(C)C)CC3)cc3cccnc23)cn1 [QN160]	9 ± 1.73 µM	9.67 ± 0.58 µM	9.33 ± 1.15 µM	–	–	–	–	–
Cc1cnc(C(=O)Nc2cccc3ncccc23)cn1 [QN521, 5-Methylpyrazine-2-carboxylic acid quinolin-5-ylamide]	> 10 µM	> 10 µM	> 10 µM	–	–	–	–	–
CC(C)(C)OC(=O)N1CCC(CCOc2cc(NC(=O)c3ncccn3)c3ncccc3c2)CC1 [QN161, 4-(2-{8-[(Pyrimidine-2-carbonyl)amino]quinolin-6-yloxy}ethyl)piperidine-1-carboxylic acid tert-butyl ester]	> 10 µM	> 10 µM	> 10 µM	–	–	–	–	–
O=C(Nc1cccc2cccnc12)c1ccc(Br)cn1 [QN529, 5-Bromopyridine-2-carboxylic acid quinolin-8-ylamide]	–	–	–	1.83 ± 0.72 µM	4 ± 0.8 µM	> 10 µM	–	–
N#C/C(=C\c1cccc(Br)n1)C(=O)Nc1cccc2cccnc12 [QN608]	> 10 µM	> 10 µM	> 10 µM	–	–	–	–	–
NCCOc1cc(NC(=O)c2ncccn2)c2ncccc2c1 [QN162, Pyrimidine-2-carboxylic acid [6-(2-aminoethoxy)quinolin-8-yl]amide]	> 10 µM	> 10 µM	> 10 µM	–	–	–	–	–
O=C(Nc1cccc2cccnc12)c1cccnn1 [QN566, Pyridazine-3-carboxylic acid quinolin-8-ylamide]	–	–	–	8.5 ± 1.03 µM	> 10 µM	> 10 µM	–	–
Cc1cnc(C(=O)Nc2cc(Cl)cc3cccnc23)cn1 [QN793, N-(6-Chloroquinolin-8-yl)-5-methylpyrazine-2-carboxamide]	1.5 ± 0.5 µM	1.77 ± 0.25 µM	5.2 ± 0.3 µM	–	–	–	–	–
CN(C)Cc1ccc2cccc(NC(=O)c3cnccn3)c2n1 [QN659, Pyrazine-2-carboxylic acid (2-dimethylaminomethyl-quinolin-8-yl)amide]	> 10 µM	> 10 µM	> 10 µM	–	–	–	–	–
